Laboratory results from US11420958B2, “Aryl and heteroaryl substituted indole compounds” (BRISTOL-MYERS SQUIBB COMPANY, priority 2017, dated 2022).

Experiments:
Type in all cases: cell-based
[1] = target: human TLR7 (Homo sapiens (Human), UniProt Q9NYK1); experiment: TLR7 inhibition reporter assay (HEK-Blue, SEAP); details: HEK-Blue cells overexpressing human TLR7, gardiquimod 7.5 μM stimulation
Method: (§1) TLR7/8/9 Inhibition Reporter Assays
(§2) HEK-Blue™-cells (Invivogen) overexpressing human TLR7, TLR8 or TLR9 receptors were used for screening inhibitors of these receptors using an inducible SEAP (secreted embryonic alkaline phosphatase) reporter gene under the control of the IFN-β minimal promoter fused to five NF-κc Band AP-1-binding sites. Briefly, cells are seeded into Greiner 384 well plates (15000 cells per well for TLR7, 20,000 for TLR8 and 25,000 for TLR9) and then treated with test compounds in DMSO to yield a final dose response concentration range of 0.05 nM-50 μM. After a 30 minute compound pre-treatment at room temperature, the cells are then stimulated with a TLR7 ligand (gardiquimod at a final concentration of 7.5 μM), TLR8 ligand (R848 at a final concentration of 15.9 μM) or TLR9 ligand (ODN2006 at final concentration of 5 nM) to activate NF-κB and AP-1 which induce the production of SEAP. After a 22 hour incubation at 37° C., 5% CO2, SEAP levels are determined with the addition of HEK-Bue™ Detection reagent (Invivogen), a cell culture medium that allows for detection of SEAP, according to manufacturer's specifications. The percent inhibition is determined as the % reduction in the HEK-Blue signal present in wells treated with agonist plus DMSO alone compared to wells treated with a known inhibitor.

[2] = target: human TLR8 (Homo sapiens (Human), UniProt Q9NR97); experiment: TLR8 inhibition reporter assay (HEK-Blue, SEAP); details: HEK-Blue cells overexpressing human TLR8, R848 15.9 μM stimulation
Method: as §1, §2

[3] = target: human TLR9 (Homo sapiens (Human), UniProt Q9NR96); experiment: TLR9 inhibition reporter assay (HEK-Blue, SEAP); details: HEK-Blue cells overexpressing human TLR9, ODN2006 5 nM stimulation
Method: as §1, §2

human TLR9, sequence (Q9NR96 26-1032): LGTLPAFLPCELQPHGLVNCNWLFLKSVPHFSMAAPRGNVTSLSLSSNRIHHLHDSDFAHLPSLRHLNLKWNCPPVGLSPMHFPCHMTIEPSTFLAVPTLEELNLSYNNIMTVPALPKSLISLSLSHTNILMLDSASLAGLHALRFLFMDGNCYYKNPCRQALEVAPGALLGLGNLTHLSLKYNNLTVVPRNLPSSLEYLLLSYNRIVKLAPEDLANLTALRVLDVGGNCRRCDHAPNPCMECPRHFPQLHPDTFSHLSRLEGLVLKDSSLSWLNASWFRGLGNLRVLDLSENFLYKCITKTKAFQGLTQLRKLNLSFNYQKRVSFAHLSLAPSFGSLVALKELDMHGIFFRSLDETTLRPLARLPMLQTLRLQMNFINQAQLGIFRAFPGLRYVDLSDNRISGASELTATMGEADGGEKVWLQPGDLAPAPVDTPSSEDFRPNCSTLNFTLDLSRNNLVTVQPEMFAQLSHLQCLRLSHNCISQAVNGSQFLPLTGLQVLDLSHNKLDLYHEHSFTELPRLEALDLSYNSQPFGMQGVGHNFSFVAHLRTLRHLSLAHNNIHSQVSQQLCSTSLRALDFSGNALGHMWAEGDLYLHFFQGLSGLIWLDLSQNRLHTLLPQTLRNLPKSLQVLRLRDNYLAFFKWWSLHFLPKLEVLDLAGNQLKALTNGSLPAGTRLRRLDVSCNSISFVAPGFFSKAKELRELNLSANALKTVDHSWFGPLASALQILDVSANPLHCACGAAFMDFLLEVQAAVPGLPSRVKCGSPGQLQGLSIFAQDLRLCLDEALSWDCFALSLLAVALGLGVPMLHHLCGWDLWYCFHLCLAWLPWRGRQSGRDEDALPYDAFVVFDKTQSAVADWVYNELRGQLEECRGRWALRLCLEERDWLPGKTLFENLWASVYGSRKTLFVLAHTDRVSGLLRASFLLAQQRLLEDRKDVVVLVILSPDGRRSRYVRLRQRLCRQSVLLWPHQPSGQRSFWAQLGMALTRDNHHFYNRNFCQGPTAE
human TLR8, sequence (Q9NR97 27-1041): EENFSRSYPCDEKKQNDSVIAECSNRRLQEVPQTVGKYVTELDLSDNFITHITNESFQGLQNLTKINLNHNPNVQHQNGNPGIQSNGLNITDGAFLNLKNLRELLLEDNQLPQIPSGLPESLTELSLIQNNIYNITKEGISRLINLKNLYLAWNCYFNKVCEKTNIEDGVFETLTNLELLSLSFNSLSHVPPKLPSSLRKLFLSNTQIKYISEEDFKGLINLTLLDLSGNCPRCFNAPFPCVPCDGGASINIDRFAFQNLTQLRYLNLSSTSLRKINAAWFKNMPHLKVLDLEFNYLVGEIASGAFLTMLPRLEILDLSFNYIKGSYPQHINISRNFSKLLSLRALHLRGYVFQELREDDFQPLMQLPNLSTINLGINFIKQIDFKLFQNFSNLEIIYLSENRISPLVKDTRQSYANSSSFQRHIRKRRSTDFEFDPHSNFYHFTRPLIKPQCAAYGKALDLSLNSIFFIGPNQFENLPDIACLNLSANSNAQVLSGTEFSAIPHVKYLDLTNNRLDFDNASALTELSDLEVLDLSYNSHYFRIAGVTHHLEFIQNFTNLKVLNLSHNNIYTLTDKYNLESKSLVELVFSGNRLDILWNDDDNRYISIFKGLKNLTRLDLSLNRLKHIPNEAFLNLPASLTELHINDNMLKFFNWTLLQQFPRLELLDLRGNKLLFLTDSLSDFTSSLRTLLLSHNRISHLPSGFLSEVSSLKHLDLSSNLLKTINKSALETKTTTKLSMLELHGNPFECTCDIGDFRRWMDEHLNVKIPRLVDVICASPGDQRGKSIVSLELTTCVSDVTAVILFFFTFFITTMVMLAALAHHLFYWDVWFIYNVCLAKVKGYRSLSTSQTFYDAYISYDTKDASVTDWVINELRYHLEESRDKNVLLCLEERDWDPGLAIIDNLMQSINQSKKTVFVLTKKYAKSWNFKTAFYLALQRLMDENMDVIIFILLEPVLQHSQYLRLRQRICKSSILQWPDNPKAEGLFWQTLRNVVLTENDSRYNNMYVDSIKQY
human TLR7, sequence (Q9NYK1 27-1049): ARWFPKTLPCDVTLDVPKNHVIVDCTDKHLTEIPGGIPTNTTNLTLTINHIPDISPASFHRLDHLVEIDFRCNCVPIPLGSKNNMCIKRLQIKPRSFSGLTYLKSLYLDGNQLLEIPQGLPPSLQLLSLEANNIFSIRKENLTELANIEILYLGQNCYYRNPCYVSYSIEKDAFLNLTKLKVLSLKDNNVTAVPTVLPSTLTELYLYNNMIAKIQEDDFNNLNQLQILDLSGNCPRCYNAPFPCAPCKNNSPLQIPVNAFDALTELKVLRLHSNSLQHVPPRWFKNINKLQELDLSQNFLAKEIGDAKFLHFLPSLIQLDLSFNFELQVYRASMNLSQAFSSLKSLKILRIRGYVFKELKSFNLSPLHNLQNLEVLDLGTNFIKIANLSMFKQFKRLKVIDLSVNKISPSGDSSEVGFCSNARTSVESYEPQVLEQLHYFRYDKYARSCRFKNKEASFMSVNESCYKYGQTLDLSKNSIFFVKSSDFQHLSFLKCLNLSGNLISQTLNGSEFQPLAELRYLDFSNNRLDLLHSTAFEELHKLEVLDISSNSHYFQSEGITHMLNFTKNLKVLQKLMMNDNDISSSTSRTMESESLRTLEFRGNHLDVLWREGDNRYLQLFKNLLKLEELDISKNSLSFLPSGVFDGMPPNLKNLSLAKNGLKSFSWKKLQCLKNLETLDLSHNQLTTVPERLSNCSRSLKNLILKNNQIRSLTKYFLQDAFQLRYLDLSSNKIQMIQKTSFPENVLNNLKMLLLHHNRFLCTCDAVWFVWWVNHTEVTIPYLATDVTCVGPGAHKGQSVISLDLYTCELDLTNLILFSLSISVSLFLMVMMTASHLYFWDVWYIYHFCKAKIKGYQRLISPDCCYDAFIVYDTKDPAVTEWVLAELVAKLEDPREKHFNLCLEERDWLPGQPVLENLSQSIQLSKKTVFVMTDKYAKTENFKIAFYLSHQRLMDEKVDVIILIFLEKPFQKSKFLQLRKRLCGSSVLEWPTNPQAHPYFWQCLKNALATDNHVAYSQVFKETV

Row | Compound | IC50 [1] | IC50 [2] | IC50 [3]
1 | COc1ccc(-c2[nH]c3ccc(-c4cccc(C(=O)N[C@H]5CC[C@H](C(C)(C)O)CC5)c4)cc3c2C(C)C)cc1OC [Example 7, 3-(2-(3,4-dimethoxyphenyl)-3-isopropyl-1H-indol-5-yl)-N-((1r,4r)-4-(2-hydroxypropan-2-yl)cyclohexyl)benzamide] | 1790 nM | 19 nM | > 50000 nM
2 | COc1ccc(-c2[nH]c3ccc(-c4cccc(C(=O)N5CCN(C(=O)C6CCCO6)CC5)c4)cc3c2CC(F)(F)F)cc1OC (stereo not drawn) [Example 33, (4-(3-(2-(3,4-dimethoxyphenyl)-3-(2,2,2-trifluoroethyl)-1H-indol-5-yl)benzoyl)piperazin-1-yl)(tetrahydrofuran-2-yl)methanone] | 1330 nM | 53 nM | –
3 | Cc1cc(-c2[nH]c3ccc(-c4ccc(N5CCN(C(C)C)CC5)nc4)cc3c2C(C)C)ccn1 [Example 302, 3-isopropyl-5-(6-(4-isopropylpiperazin-1-yl)pyridin-3-yl)-2-(2-methylpyridin-4-yl)-1H-indole] | – | 28 nM | 2320 nM
4 | CCc1c(-c2ccc(OC)c(OC)c2)[nH]c2ccc(-c3cccc(CN4CCN(C)CC4)c3)cc12 [Example 368, 2-(3,4-dimethoxyphenyl)-3-ethyl-5-(3-((4-methylpiperazin-1-yl)methyl)phenyl)-1H-indole] | 2530 nM | 230 nM | –
5 | COc1ccc(-c2[nH]c3ccc(-c4ccc(N5CCN(CC(C)C)CC5)nc4)cc3c2C(C)C)cc1OC [Example 391, 2-(3,4-dimethoxyphenyl)-5-(6-(4-isobutylpiperazin-1-yl)pyridin-3-yl)-3-isopropyl-1H-indole] | – | 73 nM | 4360 nM
6 | COc1ccc(-c2[nH]c3ccc(-c4ccc(-c5cncc6ccccc56)cc4)cc3c2C(C)C)cc1OC [Example 407, 4-(4-(2-(3,4-dimethoxyphenyl)-3-isopropyl-1H-indol-5-yl)phenyl)isoquinoline] | – | > 50000 nM | 290 nM
7 | COc1ccc(-c2ccc3[nH]c(-c4ccnc5[nH]ncc45)c(C(C)C)c3c2)cn1 [Example 422, 4-(3-isopropyl-5-(6-methoxypyridin-3-yl)-1H-indol-2-yl)-1H-pyrazolo[3,4-b]pyridine] | 4100 nM | 662 nM | –
8 | COc1ccc(-c2[nH]c3ccc(-c4ccnc(N5CCN(Cc6ccsc6)CC5)c4)cc3c2C(C)C)cc1OC [Example 423, 2-(3,4-dimethoxyphenyl)-3-isopropyl-5-(2-(4-(thiophen-3-ylmethyl)piperazin-1-yl)pyridin-4-yl)-1H-indole] | 1400 nM | – | 8760 nM
9 | COc1ccc(-c2[nH]c3ccc(-c4ccnc(N5CCN(CCC(F)(F)F)CC5)c4)cc3c2C(C)C)cc1OC [Example 424, 2-(3,4-dimethoxyphenyl)-3-isopropyl-5-(2-(4-(3,3,3-trifluoropropyl)piperazin-1-yl)pyridin-4-yl)-1H-indole] | 2590 nM | – | > 50000 nM
10 | COc1ccc(-c2[nH]c3ccc(-c4ccnc(N5CCN(CCC(C)O)CC5)c4)cc3c2C(C)C)cc1OC (stereo not drawn) [Example 425, 4-(4-(4-(2-(3,4-dimethoxyphenyl)-3-isopropyl-1H-indol-5-yl)pyridin-2-yl)piperazin-1-yl)butan-2-ol] | 1490 nM | – | 7070 nM
11 | COc1ccc(-c2[nH]c3ccc(-c4cnc(N5CCN(Cc6ccsc6)CC5)nc4)cc3c2C(C)C)cc1OC [Example 429, 2-(3,4-dimethoxyphenyl)-3-isopropyl-5-(2-(4-(thiophen-3-ylmethyl)piperazin-1-yl)pyrimidin-5-yl)-1H-indole] | 1280 nM | – | > 50000 nM
12 | COc1ccc(-c2[nH]c3ccc(-c4cnc(N5CCN(Cc6cccn6C)CC5)nc4)cc3c2C(C)C)cc1OC [Example 430, 2-(3,4-dimethoxyphenyl)-3-isopropyl-5-(2-(4-((1-methyl-1H-pyrrol-2-yl)methyl)piperazin-1-yl)pyrimidin-5-yl)-1H-indole] | 1340 nM | – | 11900 nM

More lines, in order of falling IC50 [1], values ahead:

Row | IC50 [1] | IC50 [2] | IC50 [3] | Compound
13 | 896 nM | – | 42100 nM | COc1ccc(-c2[nH]c3ccc(-c4cnc(Cl)n4C)cc3c2C(C)C)cc1OC [Example 437, 5-(2-chloro-1-methyl-1H-imidazol-5-yl)-2-(3,4-dimethoxyphenyl)-3-isopropyl-1H-indole]
14 | 250 nM | 13 nM | – | CC(C)c1c(-c2ccnc3[nH]ncc23)[nH]c2ccc(-c3ccc(C(C)N4CCOCC4)cc3)cc12 (stereo not drawn) [Example 372, 4-(1-(4-(3-isopropyl-2-(1H-pyrazolo[3,4-b]pyridin-4-yl)-1H-indol-5-yl)phenyl)ethyl)morpholine]
15 | 153 nM | 422 nM | – | CC(C)c1c(-c2ccc3nccn3c2)[nH]c2ccc(-c3nnc([C@@H]4CCCNC4)o3)cc12 [Example 244, (R)-2-(2-(imidazo[1,2-a]pyridin-6-yl)-3-isopropyl-1H-indol-5-yl)-5-(piperidin-3-yl)-1,3,4-oxadiazole]
16 | 145 nM | – | 2110 nM | COc1ccc(-c2[nH]c3ccc(-c4cnc(N5CCN(CC(C)C)CC5)n4C)cc3c2C(C)C)cc1OC [Example 433, 2-(3,4-dimethoxyphenyl)-5-(2-(4-isobutylpiperazin-1-yl)-1-methyl-1H-imidazol-5-yl)-3-isopropyl-1H-indole]
17 | 121 nM | 6.8 nM | 3290 nM | COc1ccc(-c2[nH]c3ccc(-c4cccc(C(=O)N5CCCN(C)CC5)c4)cc3c2C(C)C)cc1OC [Example 5, (3-(2-(3,4-dimethoxyphenyl)-3-isopropyl-1H-indol-5-yl)phenyl)(4-methyl-1,4-diazepan-1-yl)methanone]
18 | 121 nM | 42 nM | 2780 nM | COc1ccc(-c2[nH]c3ccc(-c4cccc(C(=O)N[C@H]5CC[C@H](N)CC5)c4)cc3c2C(C)C)cc1OC [Example 6]
19 | 114 nM | 29 nM | 1810 nM | COc1ccc(-c2[nH]c3ccc(-c4cccc(C(=O)NC5CCN(C(C)C)CC5)c4)cc3c2C(C)C)cc1OC [Example 8, 3-(2-(3,4-dimethoxyphenyl)-3-isopropyl-1H-indol-5-yl)-N-(1-isopropylpiperidin-4-yl)benzamide]
20 | 108 nM | 4.1 nM | 744 nM | COc1ccc(-c2[nH]c3ccc(-c4cccc(C(=O)N5CC6CNCC6C5)c4)cc3c2C(C)C)cc1OC (stereo not drawn) [Example 9, (3-(2-(3,4-dimethoxyphenyl)-3-isopropyl-1H-indol-5-yl)phenyl)(hexahydropyrrolo[3,4-c]pyrrol-2(1H)-yl)methanone]
21 | 107 nM | 9 nM | 2060 nM | COc1ccc(-c2[nH]c3ccc(-c4cccc(C(=O)N5CCNCC5)c4)cc3c2C(C)C)cc1OC [Example 1, 2-(3,4-dimethoxyphenyl)-5-[3-(piperazine-1-carbonyl)phenyl]-3-(propan-2-yl)-1H-indole]
22 | 78 nM | 9 nM | 979 nM | COc1ccc(-c2[nH]c3ccc(-c4nnc(C5CCN(C(C)C)CC5)o4)cc3c2C(C)C)cc1OC [Example 4, 2-(3,4-dimethoxyphenyl)-3-(propan-2-yl)-5-{5-[1-(propan-2-yl)piperidin-4-yl]-1,3,4-oxadiazol-2-yl}-1H-indole]
23 | 35 nM | 6 nM | 673 nM | COc1ccc(-c2[nH]c3ccc(-c4ccnc(C(=O)N5CCCN(C)CC5)c4)cc3c2C(C)C)cc1OC [Example 10, (4-(2-(3,4-dimethoxyphenyl)-3-isopropyl-1H-indol-5-yl)pyridin-2-yl)(4-methyl-1,4-diazepan-1-yl)methanone]
24 | 28 nM | 13 nM | 1230 nM | COc1ccc(-c2[nH]c3ccc(-c4nnc(C5CCN(C(=O)CN(C)C)CC5)o4)cc3c2C(C)C)cc1OC [Example 3, 1-(4-{5-[2-(3,4-dimethoxyphenyl)-3-(propan-2-yl)-1H-indol-5-yl]-1,3,4-oxadiazol-2-yl}piperidin-1-yl)-2-(dimethylamino)ethan-1-one]
25 | 27 nM | 7.5 nM | – | Cc1cc(-c2[nH]c3ccc(-c4nc(C(=O)NC5CCN(C(C)C)CC5)co4)cc3c2C(C)C)cc(C)n1 [Example 249, 2-(2-(2,6-dimethylpyridin-4-yl)-3-isopropyl-1H-indol-5-yl)-N-(1-isopropylpiperidin-4-yl)oxazole-4-carboxamide]
26 | 14 nM | 1.9 nM | – | Cc1cc(-c2[nH]c3ccc(-c4ccc(NC(=O)C5CC(=O)N(C)C5)nc4)cc3c2C(C)C)ccn1 (stereo not drawn) [Example 332, N-(5-(3-isopropyl-2-(2-methylpyridin-4-yl)-1H-indol-5-yl)pyridin-2-yl)-1-methyl-5-oxopyrrolidine-3-carboxamide]
27 | 3.4 nM | – | 647 nM | Cc1cc(-c2[nH]c3ccc(-c4nc5c(s4)CCNC5)cc3c2C(C)C)cc(C)n1 [Example 310, 2-(2-(2,6-dimethylpyridin-4-yl)-3-isopropyl-1H-indol-5-yl)-4,5,6,7-tetrahydrothiazolo[4,5-c]pyridine]
